Values of other authors, collected in US20200230141A1, “BI-LAYER PHARMACEUTICAL TABLET FORMULATION” (ViiV Healthcare Company, priority 2017, published 2020).
Where two headings read alike, the source gives them in different places.

How the values were obtained:
[1] = not told
[2] = steady state, HIV-1-infected adults
[3] = typical / standard physiologic conditions
[4] = tested on: HIV-1 strains; conditions: broad range of HIV-1 strains

SMILES	permeability [1]	Cmax, geometric mean (% CV) ([2]; 50 mg once daily)	Cmin, geometric mean (% CV) ([2]; 50 mg once daily)	AUC(0-24), geometric mean (% CV) ([2]; 50 mg once daily, population PK (SPRING-1, SPRING-2))	Cmax, geometric mean (% CV) ([2]; 50 mg twice daily)	Cmin, geometric mean (% CV) ([2]; 50 mg twice daily)	AUC(0-24), geometric mean (% CV) ([2]; 50 mg twice daily, population PK (VIKING, VIKING-3))	solubility [3]	potency [4]
Nc1ccn([C@@H]2CS[C@H](CO)O2)c(=O)n1 (single isomer, unassigned) [lamivudine]	highly permeable								
C[C@@H]1CCO[C@H]2Cn3cc(C(=O)NCc4ccc(F)cc4F)c(=O)c(O)c3C(=O)N12 [Dolutegravir, (4R,12aS)—N-[(2,4-difluorophenyl)methyl]-7-hydroxy-4-methyl-6,8-dioxo-3,4,12,12a-tetrahydro-2H-pyrido[5,6]pyrazino[2,6-b][1,3]oxazine-9-carboxamide]		3.67 (20) mcg/mL	1.11 (46) mcg/mL	53.6 (27) mcg · h/mL	4.15 (29) mcg/mL	2.12 (47) mcg/mL	75.1 (35) mcg · h/mL	slightly soluble	subnanomolar
